In BigSolDB 2.1:

N#CCNC(=O)c1cnccc1C(F)(F)F
solubility (mole fraction)
Conditions | 283.15 K | 288.15 K | 293.15 K | 298.15 K | 303.15 K | 308.15 K | 313.15 K | 318.15 K | 323.15 K
in 1,4-dioxane | – | 0.0145 | 0.0175 | 0.0208 | 0.0248 | 0.0295 | 0.0348 | 0.041 | 0.0482
in THF | 0.0263 | 0.0302 | 0.0343 | 0.0387 | 0.044 | 0.0502 | 0.057 | 0.0645 | 0.072
in acetone | 0.0359 | 0.041 | 0.0464 | 0.0527 | 0.0595 | 0.0677 | 0.0766 | 0.0871 | 0.099
in acetonitrile | 0.0173 | 0.0206 | 0.0245 | 0.0289 | 0.034 | 0.0404 | 0.0475 | 0.0557 | 0.0657
in ethanol | 0.00429 | 0.00546 | 0.00686 | 0.00856 | 0.0107 | 0.0133 | 0.0163 | 0.0202 | 0.0246
in ethyl acetate | 0.00961 | 0.0114 | 0.0134 | 0.0158 | 0.0182 | 0.0213 | 0.0248 | 0.0288 | 0.033
in isobutanol | 0.00152 | 0.00202 | 0.00264 | 0.00343 | 0.00441 | 0.00561 | 0.0071 | 0.00885 | 0.011
in isopropanol | 0.00249 | 0.00328 | 0.00424 | 0.00543 | 0.00696 | 0.00893 | 0.0114 | 0.0144 | 0.0181
in methanol | 0.00943 | 0.0115 | 0.0139 | 0.0168 | 0.0202 | 0.0241 | 0.0286 | 0.034 | 0.0402
in n-butanol | 0.00298 | 0.00376 | 0.00475 | 0.00589 | 0.00731 | 0.00906 | 0.0111 | 0.0138 | 0.0169
in n-butyl acetate | 0.00479 | 0.00572 | 0.00684 | 0.00806 | 0.00932 | 0.011 | 0.0128 | 0.015 | 0.0173
in n-propanol | 0.00267 | 0.00344 | 0.00436 | 0.00552 | 0.00691 | 0.00874 | 0.0109 | 0.0138 | 0.0174
